Laboratory results reported in paper PMC9181899, “Synthesis and Anticancer Properties of New 3-Methylidene-1-sulfonyl-2,3-dihydroquinolin-4(1H)-ones” (Molecules, 2022).

Legend:
HL-60 cells [1] = assay: Cell proliferation by BrdU incorporation, flow cytometry; type: cell-based; settings: 1.8 µM
Method: (§1) To evaluate the anticancer potential of 5a, the ability of this compound to inhibit cell proliferation, induce apoptotic cell death, and generate DNA damage was examined by flow cytometry using the ‘Apoptosis, DNA Damage, and Cell Proliferation Kit’ (BD Bioscience). After 24 h treatment with 5a in increasing concentrations, HL-60 cells were exposed to bromodeoxyuridine (BrdU) for additional 8 h. Then, the cells were simultaneously stained with fluorochrome-labeled anti-BrdU, anti-cleaved PARP (Asp214) and anti-H2AX (pS139).
BrdU is an analog of thymidine, and its incorporation into DNA was used as an index of cell proliferation. […] At 1.8 µM concentration, this analog caused a 2.2-fold decrease in BrdU incorporation (Figure 4a).
Cell proliferation, DNA damage, and apoptotic cell death were determined using Apoptosis, DNA Damage, and Cell Proliferation Kit (BD Bioscience, San Jose, CA, USA), according to the manufacturer protocol. Briefly, HL-60 cells were seeded in 6-well plates (4.0 × 10^5 cells/mL) in 2 mL of growth medium and treated with 5a for 24 h. […] Next, the cells were collected by centrifugation (300× g, 5 min), counted, fixed, and permeabilized according to the manufacturer’s instructions. […] After washing, DNA staining with DAPI (1 µg/mL of the staining buffer) was performed, and the cells were analyzed by flow cytometry using CytoFLEX (Beckman Coulter, Inc., Brea, CA, USA).

HL-60 cells [2] = assay: Apoptosis by cleaved PARP (Asp214) staining, flow cytometry; type: cell-based; settings: 1.8 µM, 24 h, Figure 3b
Method: as §1
To check whether the cytotoxic effect of 5a was associated with the induction of apoptosis, the pro-apoptotic activity of this compound was investigated. Apoptosis regulation is triggered by the activation of caspases. Caspase-3, an effector caspase, cleaves a number of vital proteins, leading to cell death. The activity of caspase-3 was assessed by flow cytometry using fluorochrome-labeled antibodies recognizing 89 kDa-cleaved PARP fragments released from PARP by caspase-3 in the executive stage of apoptosis.
(§2) Cell proliferation, DNA damage, and apoptotic cell death were determined using Apoptosis, DNA Damage, and Cell Proliferation Kit (BD Bioscience, San Jose, CA, USA), according to the manufacturer protocol. Briefly, HL-60 cells were seeded in 6-well plates (4.0 × 10^5 cells/mL) in 2 mL of growth medium and treated with 5a for 24 h. Afterwards, the bromodeoxyuridine (BrdU, 10 µM) was added and the cells were incubated for additional 8 h. Next, the cells were collected by centrifugation (300× g, 5 min), counted, fixed, and permeabilized according to the manufacturer’s instructions. The cells were incubated with DNase (300 µg/mL in PBS) for 1 h at 37 °C and then simultaneously stained with fluorochrome-labeled anti-BrdU, H2AX (pS139), and cleaved PARP (Asp214) antibodies, for 20 min at room temperature. After washing, DNA staining with DAPI (1 µg/mL of the staining buffer) was performed, and the cells were analyzed by flow cytometry using CytoFLEX (Beckman Coulter, Inc., Brea, CA, USA).

HL-60 cells [3] = assay: DNA damage by H2AX (pS139) staining, flow cytometry; type: cell-based, human; settings: 24 h; for increase of phosphorylated H2AX level: vs control
Method: as §1
It is well documented that apoptosis induced by many anticancer drugs may be a consequence of DNA damage. Chemical genotoxins that target DNA can inhibit DNA replication, which leads to the collapse of replication forks and the formation of DNA double strand breaks (DSBs). The generation of DNA damage was evaluated using anti-H2AX (pS139) antibodies directed against the phosphorylated form of human H2AX protein at the pS139 residue that is considered to be a biomarker for DNA DSBs. The treatment of HL-60 cells with 5a increased the levels of phosphorylated H2AX by 4.7- and 7.8-fold (to 1.35 µM and 1.9 µM, respectively), indicating the dose-dependent genotoxic effect of the tested compound (Figure 4c).
as §2

For `C=C1C(=O)c2ccccc2N(S(=O)(=O)c2ccccc2)C1CC` (centres unmarked) [Compound 5a, 2-Ethyl-3-methylidene-1-(phenylsulfonyl)-2,3-dihydroquinolin-4(1H)-one], the “BrdU positive cells (representative plot)” value (HL-60 cells [1]; 24 h, Figure 3a) was 17.5%, the “decrease in BrdU incorporation” value (HL-60 cells [1]; 24 h treatment then BrdU 8 h, vs control) was 2.2 fold and the “Q3: H2AX (pS139) and cleaved PARP negative cells (representative plot)” value (HL-60 cells [2]) was 66.8%. For the same molecule, the “Q4: cleaved PARP positive, H2AX (pS139) negative cells (representative plot)” value (HL-60 cells [2]) was 15.0%, the “increase of phosphorylated H2AX level” value (HL-60 cells [3]; 1.35 µM) was 4.7 fold and the “Q1: H2AX (pS139) positive, cleaved PARP negative cells (representative plot)” value (HL-60 cells [3]; 1.8 µM, Figure 3b) was 5.0%. For the same molecule, the “Q2: H2AX (pS139) and cleaved PARP positive cells (representative plot)” value (HL-60 cells [3]; 1.8 µM, Figure 3b) was 13.2% and the “increase of phosphorylated H2AX level” value (HL-60 cells [3]; 1.9 µM) was 7.8 fold.
